## Oc1ccccc1C=Nc1c(F)cccc1F
In 1,2-dichloroethane, 273.15 K
  solubility (mole fraction): 0.105
In 1,2-dichloroethane, 278.15 K
  solubility (mole fraction): 0.122
In 1,2-dichloroethane, 283.15 K
  solubility (mole fraction): 0.142
In 1,2-dichloroethane, 288.15 K
  solubility (mole fraction): 0.164
In 1,2-dichloroethane, 293.15 K
  solubility (mole fraction): 0.193
In 1,2-dichloroethane, 298.15 K
  solubility (mole fraction): 0.234
In 1,2-dichloroethane, 303.15 K
  solubility (mole fraction): 0.277
In THF, 273.15 K
  solubility (mole fraction): 0.161
In THF, 278.15 K
  solubility (mole fraction): 0.181
In THF, 283.15 K
  solubility (mole fraction): 0.2
In THF, 288.15 K
  solubility (mole fraction): 0.23
In THF, 293.15 K
  solubility (mole fraction): 0.258
In THF, 298.15 K
  solubility (mole fraction): 0.293
In THF, 303.15 K
  solubility (mole fraction): 0.338
In acetonitrile, 273.15 K
  solubility (mole fraction): 0.0134
In acetonitrile, 278.15 K
  solubility (mole fraction): 0.0191
In acetonitrile, 283.15 K
  solubility (mole fraction): 0.0272
In acetonitrile, 288.15 K
  solubility (mole fraction): 0.0389
In acetonitrile, 293.15 K
  solubility (mole fraction): 0.0547
In acetonitrile, 298.15 K
  solubility (mole fraction): 0.0768
In acetonitrile, 303.15 K
  solubility (mole fraction): 0.106
In chloroform, 273.15 K
  solubility (mole fraction): 0.138
In chloroform, 278.15 K
  solubility (mole fraction): 0.154
In chloroform, 283.15 K
  solubility (mole fraction): 0.177
In chloroform, 288.15 K
  solubility (mole fraction): 0.203
In chloroform, 293.15 K
  solubility (mole fraction): 0.232
In chloroform, 298.15 K
  solubility (mole fraction): 0.27
In chloroform, 303.15 K
  solubility (mole fraction): 0.313
In dichloromethane, 273.15 K
  solubility (mole fraction): 0.122
In dichloromethane, 278.15 K
  solubility (mole fraction): 0.139
In dichloromethane, 283.15 K
  solubility (mole fraction): 0.161
In dichloromethane, 288.15 K
  solubility (mole fraction): 0.185
In dichloromethane, 293.15 K
  solubility (mole fraction): 0.218
In dichloromethane, 298.15 K
  solubility (mole fraction): 0.252
In dichloromethane, 303.15 K
  solubility (mole fraction): 0.295
In ethanol, 273.15 K
  solubility (mole fraction): 0.00496
In ethanol, 278.15 K
  solubility (mole fraction): 0.00633
In ethanol, 283.15 K
  solubility (mole fraction): 0.00819
In ethanol, 288.15 K
  solubility (mole fraction): 0.0103
In ethanol, 293.15 K
  solubility (mole fraction): 0.0128
In ethanol, 298.15 K
  solubility (mole fraction): 0.0157
In ethanol, 303.15 K
  solubility (mole fraction): 0.0192
In ethyl acetate, 273.15 K
  solubility (mole fraction): 0.0896
In ethyl acetate, 278.15 K
  solubility (mole fraction): 0.104
In ethyl acetate, 283.15 K
  solubility (mole fraction): 0.124
In ethyl acetate, 288.15 K
  solubility (mole fraction): 0.146
In ethyl acetate, 293.15 K
  solubility (mole fraction): 0.173
In ethyl acetate, 298.15 K
  solubility (mole fraction): 0.204
In ethyl acetate, 303.15 K
  solubility (mole fraction): 0.248
In isopropanol, 273.15 K
  solubility (mole fraction): 0.008
In isopropanol, 278.15 K
  solubility (mole fraction): 0.0095
In isopropanol, 283.15 K
  solubility (mole fraction): 0.0114
In isopropanol, 288.15 K
  solubility (mole fraction): 0.0136
In isopropanol, 293.15 K
  solubility (mole fraction): 0.0164
In isopropanol, 298.15 K
  solubility (mole fraction): 0.0195
In isopropanol, 303.15 K
  solubility (mole fraction): 0.0231
In methanol, 273.15 K
  solubility (mole fraction): 0.00299
In methanol, 278.15 K
  solubility (mole fraction): 0.00392
In methanol, 283.15 K
  solubility (mole fraction): 0.00512
In methanol, 288.15 K
  solubility (mole fraction): 0.00667
In methanol, 293.15 K
  solubility (mole fraction): 0.00873
In methanol, 298.15 K
  solubility (mole fraction): 0.0111
In methanol, 303.15 K
  solubility (mole fraction): 0.0141
In n-propanol, 273.15 K
  solubility (mole fraction): 0.00636
In n-propanol, 278.15 K
  solubility (mole fraction): 0.00779
In n-propanol, 283.15 K
  solubility (mole fraction): 0.00958
In n-propanol, 288.15 K
  solubility (mole fraction): 0.0118
In n-propanol, 293.15 K
  solubility (mole fraction): 0.0146
In n-propanol, 298.15 K
  solubility (mole fraction): 0.0177
In n-propanol, 303.15 K
  solubility (mole fraction): 0.0212
In toluene, 273.15 K
  solubility (mole fraction): 0.0871
In toluene, 278.15 K
  solubility (mole fraction): 0.105
In toluene, 283.15 K
  solubility (mole fraction): 0.126
In toluene, 288.15 K
  solubility (mole fraction): 0.149
In toluene, 293.15 K
  solubility (mole fraction): 0.176
In toluene, 298.15 K
  solubility (mole fraction): 0.213
In toluene, 303.15 K
  solubility (mole fraction): 0.251
